Values of other authors in patent US11311608B2, “Methods for treating breast and other cancers by targeting argininosuccinate synthetase 1-deficiency” (CITY OF HOPE, priority 2013, dated 2022).

Conditions: versus arginase

## Arginine deiminase
  effectiveness at depleting arginine from the environment relative to arginase: 300 fold
